According to patent publication US20090312288A1 (TAKEDA PHARMACEUTICAL COMPANY LIMITED, priority 2008, published 2009):

These molecules were tested against Aurora B/INCENP (Homo sapiens, UniProt Q96GD4) (assay: Determination of inhibition of AIK: Aurora B/INCENP direct fluorescence polarization (IMAP) assay). Details: 10 uM ATP, 0.8 nM Aurora B/INCENP; values given as bins; read-out: IC50 of Exemplified Compounds Against AIK B.
Chain of Aurora B/INCENP (Q96GD4 whole entry): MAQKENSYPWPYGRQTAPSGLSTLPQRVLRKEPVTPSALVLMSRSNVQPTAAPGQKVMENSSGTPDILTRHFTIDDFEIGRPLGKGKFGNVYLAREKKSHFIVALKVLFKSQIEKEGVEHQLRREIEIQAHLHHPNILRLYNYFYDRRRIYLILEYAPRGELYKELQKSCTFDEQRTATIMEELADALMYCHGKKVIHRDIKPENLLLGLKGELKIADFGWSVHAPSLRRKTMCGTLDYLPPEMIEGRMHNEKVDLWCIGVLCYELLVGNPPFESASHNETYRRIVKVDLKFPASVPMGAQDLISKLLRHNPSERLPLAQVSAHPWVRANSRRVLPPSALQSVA
Chain of Aurora B/INCENP (Q9NQS7 whole entry partner): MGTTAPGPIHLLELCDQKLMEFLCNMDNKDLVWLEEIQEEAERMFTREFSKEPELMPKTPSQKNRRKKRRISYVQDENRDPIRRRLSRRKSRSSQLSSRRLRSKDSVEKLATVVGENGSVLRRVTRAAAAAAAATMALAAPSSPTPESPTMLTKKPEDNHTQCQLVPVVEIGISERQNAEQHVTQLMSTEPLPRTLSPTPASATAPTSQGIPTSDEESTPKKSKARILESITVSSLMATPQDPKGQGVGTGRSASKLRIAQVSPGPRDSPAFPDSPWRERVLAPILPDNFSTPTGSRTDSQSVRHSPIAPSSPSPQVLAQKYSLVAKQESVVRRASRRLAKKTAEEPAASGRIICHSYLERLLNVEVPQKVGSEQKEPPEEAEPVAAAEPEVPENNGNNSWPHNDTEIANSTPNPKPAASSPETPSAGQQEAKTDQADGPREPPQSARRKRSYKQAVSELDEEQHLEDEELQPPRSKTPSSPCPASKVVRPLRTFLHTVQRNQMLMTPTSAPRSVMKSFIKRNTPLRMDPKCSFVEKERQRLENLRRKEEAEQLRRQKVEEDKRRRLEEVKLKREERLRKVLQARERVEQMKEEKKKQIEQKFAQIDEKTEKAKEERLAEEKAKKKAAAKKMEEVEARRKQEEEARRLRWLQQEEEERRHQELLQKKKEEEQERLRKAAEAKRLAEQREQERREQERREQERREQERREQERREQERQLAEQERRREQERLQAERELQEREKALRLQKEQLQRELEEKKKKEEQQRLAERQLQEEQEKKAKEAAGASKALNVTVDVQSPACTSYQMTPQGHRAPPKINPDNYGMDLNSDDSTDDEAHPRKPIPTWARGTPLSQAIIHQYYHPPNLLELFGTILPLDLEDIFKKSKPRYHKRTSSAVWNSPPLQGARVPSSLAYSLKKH
Type: biochemical
Procedure: Detection of the reaction product is performed by addition of Progressive IMAP binding reagent (Molecular Devices). Reaction product may be determined quantitatively by FP using an Analyst HT plate reader (Molecular Devices) with an excitation wavelength at 485 nm and emission at 530 nm and using a Fluorescein 505 dichroic mirror.
The assay reaction may be initiated as follows: 2 ul of (3×) 300 nM Fl-Peptide/30 uM ATP was added to each well of the plate, followed by the addition of 2 ul of (3×) inhibitor (2 fold serial dilutions for 11 data points for each inhibitor) containing 15% DMSO. Two microliters of (3×) 2.4 nM AuroraB/INCENP solution may be added to initiate the reaction (final enzyme concentration was 0.8 nM for Aurora B/INCENP). The reaction mixture may then be incubated at room temperature for 45 min, and quenched and developed by addition of 20 ul of 1 to 400 diluted Progressive IMAP binding reagent in 1× proprietary Progressive IMAP binding buffer A. Fluorescence polarization readings of the resulting reaction mixtures may be measured after a 60-minute incubation at room temperature.
IC50 values may be calculated by non-linear curve fitting of the compound concentrations and fluorescent polarization values to the standard IC50 equation.
For `c1ccc(-c2cccc3[nH]c4ncccc4c23)cc1` [Compound 5, 5-phenyl-9H-pyrido[2,3-b]indole], the IC50 was > 13 nM.
For `CS(=O)(=O)c1cccc(-c2cccc3[nH]c4ncccc4c23)c1` [Compound 8, 5-(3-(methylsulfonyl)phenyl)-9H-pyrido[2,3-b]indole], the IC50 was > 13 nM.
In the case of `CCS(=O)(=O)c1cccc(-c2cccc3[nH]c4ncccc4c23)c1` [Compound 9, 5-(3-(ethylsulfonyl)phenyl)-9H-pyrido[2,3-b]indole], the IC50 is reported as > 13 nM.
`Cc1cccc(-c2cccc3[nH]c4ncccc4c23)c1` [Compound 11, 5-m-tolyl-9H-pyrido[2,3-b]indole] was tested, and the IC50 was > 13 nM.
`O=S(=O)(NC1CC1)c1cccc(-c2cccc3[nH]c4ncccc4c23)c1` [Compound 12, N-cyclopropyl-3-(9H-pyrido[2,3-b]indol-5-yl)benzenesulfonamide] was tested, and the IC50 was > 13 nM.
`CNS(=O)(=O)c1cc(-c2ccc(C)c3[nH]c4ncc(C)cc4c23)ccc1OC` [Compound 14, 5-(3,8-dimethyl-9H-pyrido[2,3-b]indol-5-yl)-2-methoxy-N-methylbenzenesulfonamide] was tested, and the IC50 was < 4 nM.
In the case of `CNS(=O)(=O)c1cccc(-c2ccc(C)c3[nH]c4ncc(C)cc4c23)c1` [Compound 15, 3-(3,8-dimethyl-9H-pyrido[2,3-b]indol-5-yl)-N-methylbenzenesulfonamide], the IC50 is reported as < 4 nM.
Work on `Cc1cnc2[nH]c3c(C)ccc(-c4cccc(S(=O)(=O)N(C)C)c4)c3c2c1` [Compound 16, 3-(3,8-dimethyl-9H-pyrido[2,3-b]indol-5-yl)-N,N-dimethylbenzenesulfonamide] yielded an IC50 of 5.6 to 8.5 nM.
Work on `CCS(=O)(=O)c1cccc(-c2ccc(C)c3[nH]c4ncc(C)cc4c23)c1` [Compound 18, 5-(3-(ethylsulfonyl)phenyl)-3,8-dimethyl-9H-pyrido[2,3-b]indole] yielded an IC50 of 5.6 to 8.5 nM.
`Cc1cnc2[nH]c3c(C)ccc(-c4cccc(C(=O)NC5CC5)c4)c3c2c1` [Compound 20, N-cyclopropyl-3-(3,8-dimethyl-9H-pyrido[2,3-b]indol-5-yl)benzamide] showed an IC50 of 4 to 5.5 nM.
In the case of `CC(=O)Nc1ccc(Sc2cccc3[nH]c4ncccc4c23)cc1` [Compound 21, N-(4-(9H-pyrido[2,3-b]indol-5-ylthio)phenyl)acetamide], the IC50 is reported as > 13 nM.
In the case of `c1ccc(Sc2cccc3[nH]c4ncccc4c23)cc1` [Compound 23, 5-(phenylthio)-9H-pyrido[2,3-b]indole], the IC50 is reported as > 13 nM.
`Cc1cnc2[nH]c3c(C)ccc(SCc4ccccc4)c3c2c1` [Compound 25, 5-(benzylthio)-3,8-dimethyl-9H-pyrido[2,3-b]indole] was tested, and the IC50 was > 13 nM.
`CCS(=O)(=O)c1cccc(-c2c[nH]c(=O)c3[nH]c4ncc(C)cc4c23)c1` [Compound 32, 5-(3-Ethanesulfonyl-phenyl)-3-methyl-7,9-dihydro-dipyrido[2,3-b;4′,3′-d]pyrrol-8-one] was tested, and the IC50 was 5.6 to 8.5 nM.
Molecule `CCS(=O)(=O)c1cccc(-c2cnc(Cl)c3[nH]c4ncc(C)cc4c23)c1` [Compound 33, 8-Chloro-5-(3-ethanesulfonyl-phenyl)-3-methyl-9H-dipyrido[2,3-b;4′,3′-d]pyrrole] has an IC50 of 4 to 5.5 nM.
`CCS(=O)(=O)c1cccc(-c2cnc(NCCCN(C)C)c3[nH]c4ncc(C)cc4c23)c1` [Compound 41, N′-[5-(3-Ethanesulfonyl-phenyl)-3-methyl-9H-dipyrido[2,3-b;4′,3′-d]pyrrol-8-yl]-N,N-dimethyl-propane-1,3-diamine] gave an IC50 of 5.6 to 8.5 nM.
Work on `CCS(=O)(=O)c1cccc(-c2cnc(NCCN(C)C)c3[nH]c4ncc(C)cc4c23)c1` [Compound 42, N′-[5-(3-Ethanesulfonyl-phenyl)-3-methyl-9H-dipyrido[2,3-b;4′,3′-d]pyrrol-8-yl]-N,N-dimethyl-ethane-1,2-diamine] yielded an IC50 of 8.6 to 13 nM.
`CCS(=O)(=O)c1cccc(-c2cnc(NCCCN3CCOCC3)c3[nH]c4ncc(C)cc4c23)c1` [Compound 43, [5-(3-Ethanesulfonyl-phenyl)-3-methyl-9H-dipyrido[2,3-b;4′,3′-d]pyrrol-8-yl]-(3-morpholin-4-yl-propyl)-amine] showed an IC50 of 5.6 to 8.5 nM.
`CCS(=O)(=O)c1cccc(-c2cnc(NC3CCN(C)CC3)c3[nH]c4ncc(C)cc4c23)c1` [Compound 44, [5-(3-Ethanesulfonyl-phenyl)-3-methyl-9H-dipyrido[2,3-b;4′,3′-d]pyrrol-8-yl]-(1-methyl-piperidin-4-yl)-amine] showed an IC50 of 8.6 to 13 nM.
`CCS(=O)(=O)c1cccc(-c2cnc(NCC3CCN(C)CC3)c3[nH]c4ncc(C)cc4c23)c1` [Compound 46, [5-(3-Ethanesulfonyl-phenyl)-3-methyl-9H-dipyrido[2,3-b;4′,3′-d]pyrrol-8-yl]-(1-methyl-piperidin-4-ylmethyl)-amine] was tested, and the IC50 was 8.6 to 13 nM.
`CCS(=O)(=O)c1cccc(-c2cnc(C)c3[nH]c4ncc(C)cc4c23)c1` [Compound 47, 5-(3-Ethanesulfonyl-phenyl)-3,8-dimethyl-9H-dipyrido[2,3-b;4′,3′-d]pyrrole] gave an IC50 of 5.6 to 8.5 nM.
`CCS(=O)(=O)c1cccc(-c2cnc(C#N)c3[nH]c4ncc(C)cc4c23)c1` [Compound 49, 5-(3-Ethanesulfonyl-phenyl)-3-methyl-9H-dipyrido[2,3-b;4′,3′-d]pyrrole-8-carbonitrile] gave an IC50 of 8.6 to 13 nM.
For `CCS(=O)(=O)c1cccc(-c2cnc(C(N)=O)c3[nH]c4ncc(C)cc4c23)c1` [Compound 50, 5-(3-Ethanesulfonyl-phenyl)-3-methyl-9H-dipyrido[2,3-b;4′,3′-d]pyrrole-8-carboxylic acid amide], the IC50 was 5.6 to 8.5 nM.
For `CCOc1ncc(-c2cccc(S(=O)(=O)CC)c2)c2c1[nH]c1ncc(C)cc12` [Compound 51, 5-(3-Ethanesulfonyl-phenyl)-8-ethoxy-3-methyl-9H-dipyrido[2,3-b;4′,3′-d]pyrrole], the IC50 was 5.6 to 8.5 nM.
`CCS(=O)(=O)c1cccc(-c2cnc(OCCCN(C)C)c3[nH]c4ncc(C)cc4c23)c1` [Compound 52, {3-[5-(3-Ethanesulfonyl-phenyl)-3-methyl-9H-dipyrido[2,3-b;4′,3′-d]pyrrol-8-yloxy]-propyl}-dimethyl-amine] gave an IC50 of 8.6 to 13 nM.
`CCS(=O)(=O)c1cccc(-c2cnc(OCCO)c3[nH]c4ncc(C)cc4c23)c1` [Compound 53, 2-[5-(3-Ethanesulfonyl-phenyl)-3-methyl-9H-dipyrido[2,3-b;4′,3′-d]pyrrol-8-yloxy]-ethanol] was tested, and the IC50 was 4 to 5.5 nM.
For `CCS(=O)(=O)c1cccc(-c2cnc(OCC3CCN(C)CC3)c3[nH]c4ncc(C)cc4c23)c1` [Compound 54, 5-(3-Ethanesulfonyl-phenyl)-3-methyl-8-(1-methyl-piperidin-4-ylmethoxy)-9H-dipyrido[2,3-b;4′,3′-d]pyrrole], the IC50 was 8.6 to 13 nM.
`CCS(=O)(=O)c1cccc(-c2cnc(OCCCO)c3[nH]c4ncc(C)cc4c23)c1` [Compound 55, 3-[5-(3-Ethanesulfonyl-phenyl)-3-methyl-9H-dipyrido[2,3-b;4′,3′-d]pyrrol-8-yloxy]-propan-1-ol] was tested, and the IC50 was < 4 nM.
With `CCS(=O)(=O)c1cccc(-c2cnc(OC[C@H](O)CO)c3[nH]c4ncc(C)cc4c23)c1` [Compound 56] the IC50 was < 4 nM.
For `CCS(=O)(=O)c1cccc(-c2cnc(OC[C@@H](O)CO)c3[nH]c4ncc(C)cc4c23)c1` [Compound 57], the IC50 was 4 to 5.5 nM.
With `CCS(=O)(=O)c1cccc(-c2cnc(OCC(C)(C)O)c3[nH]c4ncc(C)cc4c23)c1` [Compound 58, 1-[5-(3-Ethanesulfonyl-phenyl)-3-methyl-9H-dipyrido[2,3-b;4′,3′-d]pyrrol-8-yloxy]-2-methyl-propan-2-ol] the IC50 was 8.6 to 13 nM.
Work on `CCS(=O)(=O)c1cccc(-c2cnc(Oc3ccccc3)c3[nH]c4ncc(C)cc4c23)c1` [Compound 59, 5-(3-Ethanesulfonyl-phenyl)-3-methyl-8-phenoxy-9H-dipyrido[2,3-b;4′,3′-d]pyrrole] yielded an IC50 of 5.6 to 8.5 nM.
`CCS(=O)(=O)c1cccc(-c2cnc(OCc3cncs3)c3[nH]c4ncc(C)cc4c23)c1` [Compound 60, 5-(3-Ethanesulfonyl-phenyl)-3-methyl-8-(thiazol-5-ylmethoxy)-9H-dipyrido[2,3-b;4′,3′-d]pyrrole] was tested, and the IC50 was 4 to 5.5 nM.
In the case of `CCN1CCC(COc2ncc(-c3cccc(S(=O)(=O)CC)c3)c3c2[nH]c2ncc(C)cc23)CC1` [Compound 61, 5-(3-Ethanesulfonyl-phenyl)-8-(1-ethyl-piperidin-4-ylmethoxy)-3-methyl-9H-dipyrido[2,3-b;4′,3′-d]pyrrole], the IC50 is reported as 5.6 to 8.5 nM.
In the case of `CCS(=O)(=O)c1cccc(-c2cnc(OC[C@H](C)O)c3[nH]c4ncc(C)cc4c23)c1` [Compound 62, (S)-1-[5-(3-Ethanesulfonyl-phenyl)-3-methyl-9H-dipyrido[2,3-b;4′,3′-d]pyrrol-8-yloxy]-propan-2-ol], the IC50 is reported as 4 to 5.5 nM.
Work on `CCS(=O)(=O)c1cccc(-c2cnc(OC[C@@H](C)O)c3[nH]c4ncc(C)cc4c23)c1` [Compound 63, (R)-1-[5-(3-Ethanesulfonyl-phenyl)-3-methyl-9H-dipyrido[2,3-b;4′,3′-d]pyrrol-8-yloxy]-propan-2-ol] yielded an IC50 of 4 to 5.5 nM.
`CCS(=O)(=O)c1cccc(-c2cnc(OCCOC(=O)[C@@H](N)C(C)C)c3[nH]c4ncc(C)cc4c23)c1` [Compound 64, L-Valine-2-[5-(3-ethanesulfonyl-phenyl)-3-methyl-9H-dipyrido[2,3-b;4′,3′-d]pyrrol-8-yloxy]-ethyl ester] was tested, and the IC50 was 5.6 to 8.5 nM.
Molecule `CCS(=O)(=O)c1cccc(-c2cnc(OC[C@@H](C)OC(=O)[C@H](C)N)c3[nH]c4ncc(C)cc4c23)c1` [Compound 65, L-Alanine-(R)-2-[5-(3-ethanesulfonyl-phenyl)-3-methyl-9H-dipyrido[2,3-b;4′,3′-d]pyrrol-8-yloxy]-1-methyl-ethyl ester] has an IC50 of 8.6 to 13 nM.
